# According to patent US20250176599A1, “FLAVOR COMPOSITION AND FOOD AND BEVERAGE” (TAKASAGO INTERNATIONAL CORPORATION, priority 2021, published 2025):
# Columns and labels:
# [1] = Sensory evaluation of aqueous solution V containing 1-octen-3-ol 10 ppb: off-flavor intensity and masking component intensity; settings: 1-octen-3-ol 10 ppb, average score 0-4
# Method in brief: (§1)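 8 trained panelists; degradant in ion-exchanged water + nootkatone. Off-flavor 0–4, relative (no masker = 4, water = 0); masker flavor 0–4, absolute.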
# [2] = Sensory evaluation of aqueous solution VI containing 1,5-octadien-3-ol 10 ppb: off-flavor intensity and masking component intensity; settings: aqueous solution VI, 1,5-octadien-3-ol 10 ppb, average score 0-4
# Method in brief: as §1
# [3] = Overall conclusion of the sensory evaluation across aqueous solutions I to VI
# Method in brief: as §1
# [4] = Sensory evaluation of degradation component-added soymilk II (1-octen-3-ol 500 ppb); settings: average panel score
# Method: (§2) To commercially available soymilk (“Delicious Unadjusted Soymilk” manufactured by Kikkoman Corporation), each degradation component was added to prepare degradation component-added soymilks at the concentrations listed in Table 23. To these degradation component-added soymilks, 1,4-dioxacycloheptadecan-5,17-dione was added at the concentrations listed in Table 23 to confirm the intensity of the off-flavor (masking effect) and the intensity of the masking components (impact on the flavor of the soymilk itself) for each sample.
# (§3) Eight experienced panelists were selected to conduct a sensory evaluation similar to that of Example 1. […]
# [5] = Sensory evaluation of aqueous solution I containing (E)-2-nonenal 1 ppb: off-flavor intensity and masking component intensity; settings: (E)-2-nonenal 1 ppb, average score 0-4
# Method in brief: as §1
# [6] = Sensory evaluation of aqueous solution III containing 1-octen-3-one 1 ppb: off-flavor intensity and masking component intensity; settings: 1-octen-3-one 1 ppb, average score 0-4
# Method in brief: as §1
# [7] = Overall conclusion of the sensory evaluation across soymilks I and II
# Method: as §2
# Eight experienced panelists were selected to conduct a sensory evaluation similar to that of Example 1.
# The same method as in Example 20 was used to confirm the intensity of the off-flavor (masking effect) derived from unsaturated fatty acids by α-methyl ionone and the intensity of the masking components (impact on the flavor of the soymilk itself).
# The same method as in Example 20 was used to confirm the intensity of the off-flavor (masking effect) derived from unsaturated fatty acids by menthyl 3-hydroxybutyrate and the intensity of the masking components (impact on the flavor of the soymilk itself).
# [8] = Sensory evaluation of aqueous solution II containing (E)-2-octenal 10 ppb: off-flavor intensity and masking component intensity; settings: (E)-2-octenal 10 ppb, average score 0-4
# Method in brief: as §1
# [9] = Sensory evaluation of degradation component-added soymilk I ((E)-2-nonenal 5 ppb); settings: average panel score
# Method: as §2, §3
# [10] = Sensory evaluation of aqueous solution IV containing 1,5-octadien-3-one 100 ppt: off-flavor intensity and masking component intensity; settings: aqueous solution IV, 1,5-octadien-3-one 100 ppt, average score 0-4
# Method in brief: as §1
structure (smiles),measurement,setting,value
"O=C1CCCCCCCCCCCC(=O)OCCO1 [1,4-Dioxacycloheptadecan-5,17-Dione, 1,4-dioxacycloheptadecan-5,17-dione]",Off-Flavor Intensity,[1]; 0.001 ppt added,3.4 points
same,Off-Flavor Intensity,[1]; 0.01 ppt added,3.1 points
same,Off-Flavor Intensity,[1]; 0.1 ppt added,2.9 points
same,Off-Flavor Intensity,[1]; 1 ppb added,1.9 points
same,Off-Flavor Intensity,[1]; 1 ppt added,2.8 points
same,Off-Flavor Intensity,[1]; 10 ppb added,1.4 points
same,Off-Flavor Intensity,[1]; 10 ppt added,2.5 points
same,Off-Flavor Intensity,[1]; 100 ppb added,0.5 points
same,Off-Flavor Intensity,[1]; 100 ppt added,2.1 points
same,Off-Flavor Intensity,[2]; 0.001 ppt added,3.3 points
same,Off-Flavor Intensity,[2]; 0.01 ppt added,3.0 points
same,Off-Flavor Intensity,[2]; 0.1 ppt added,2.9 points
same,Off-Flavor Intensity,[2]; 1 ppb added,1.8 points
same,Off-Flavor Intensity,[2]; 1 ppt added,2.5 points
same,Off-Flavor Intensity,[2]; 10 ppb added,1.4 points
same,Off-Flavor Intensity,[2]; 10 ppt added,2.5 points
same,Off-Flavor Intensity,[2]; 100 ppb added,0.9 points
same,Off-Flavor Intensity,[2]; 100 ppt added,2.1 points
same,"concentration that masks the off-flavor and does not affect the flavor of the food and/or beverage itself, lower limit",[3],≥ 0.01 ppt
same,"concentration that masks the off-flavor and does not affect the flavor of the food and/or beverage itself, upper limit",[3],≤ 10 ppb
same,Masking Component Intensity,[4]; 1 ppb added,0.9
same,Off-Flavor Intensity,[4]; 1 ppb added,1.8
same,Masking Component Intensity,[4]; 1 ppm added,2.8
same,Off-Flavor Intensity,[4]; 1 ppm added,0.5
same,Masking Component Intensity,[4]; 10 ppb added,1.3
same,Off-Flavor Intensity,[4]; 10 ppb added,1.3
same,Masking Component Intensity,[4]; 10 ppt added,0.4
same,Off-Flavor Intensity,[4]; 10 ppt added,2.5
same,Masking Component Intensity,[4]; 100 ppb added,2.1
same,Off-Flavor Intensity,[4]; 100 ppb added,1.0
same,Masking Component Intensity,[4]; 100 ppt added,0.5
same,Off-Flavor Intensity,[4]; 100 ppt added,2.0
same,Off-Flavor Intensity,[5]; 0.001 ppt added,3.5 points
same,Off-Flavor Intensity,[5]; 0.01 ppt added,3.3 points
same,Off-Flavor Intensity,[5]; 0.1 ppt added,2.9 points
same,Off-Flavor Intensity,[5]; 1 ppb added,1.6 points
same,Off-Flavor Intensity,[5]; 1 ppt added,2.8 points
same,Off-Flavor Intensity,[5]; 10 ppb added,1.0 points
same,Off-Flavor Intensity,[5]; 10 ppt added,2.3 points
same,Off-Flavor Intensity,[5]; 100 ppb added,0.3 points
same,Off-Flavor Intensity,[5]; 100 ppt added,2.0 points
same,Off-Flavor Intensity,[6]; 0.001 ppt added,3.6 points
same,Off-Flavor Intensity,[6]; 0.01 ppt added,3.4 points
same,Off-Flavor Intensity,[6]; 0.1 ppt added,3.0 points
same,Off-Flavor Intensity,[6]; 1 ppb added,1.4 points
same,Off-Flavor Intensity,[6]; 1 ppt added,2.6 points
same,Off-Flavor Intensity,[6]; 10 ppb added,1.0 points
same,Off-Flavor Intensity,[6]; 10 ppt added,2.4 points
same,Off-Flavor Intensity,[6]; 100 ppb added,0.3 points
same,Off-Flavor Intensity,[6]; 100 ppt added,1.8 points
same,"concentration that masks the off-flavor and does not affect the flavor of the soymilk itself, lower limit",[7],≥ 10 ppt
same,"concentration that masks the off-flavor and does not affect the flavor of the soymilk itself, upper limit",[7],≤ 1 ppm
same,Off-Flavor Intensity,[8]; 0.001 ppt added,3.4 points
same,Off-Flavor Intensity,[8]; 0.01 ppt added,3.4 points
same,Off-Flavor Intensity,[8]; 0.1 ppt added,3.1 points
same,Off-Flavor Intensity,[8]; 1 ppb added,1.8 points
same,Off-Flavor Intensity,[8]; 1 ppt added,2.8 points
same,Off-Flavor Intensity,[8]; 10 ppb added,1.5 points
same,Off-Flavor Intensity,[8]; 10 ppt added,2.4 points
same,Off-Flavor Intensity,[8]; 100 ppb added,0.6 points
same,Off-Flavor Intensity,[8]; 100 ppt added,2.0 points
same,Masking Component Intensity,[9]; 1 ppb added,0.3
same,Off-Flavor Intensity,[9]; 1 ppb added,2.3
same,Masking Component Intensity,[9]; 1 ppm added,2.6
same,Off-Flavor Intensity,[9]; 1 ppm added,0.6
same,Masking Component Intensity,[9]; 10 ppb added,1.0
same,Off-Flavor Intensity,[9]; 10 ppb added,1.8
same,Masking Component Intensity,[9]; 10 ppt added,0.0
same,Off-Flavor Intensity,[9]; 10 ppt added,3.0
same,Masking Component Intensity,[9]; 100 ppb added,1.9
same,Off-Flavor Intensity,[9]; 100 ppb added,1.0
same,Masking Component Intensity,[9]; 100 ppt added,0.0
same,Off-Flavor Intensity,[9]; 100 ppt added,2.9
same,Off-Flavor Intensity,[10]; 0.001 ppt added,3.8 points
same,Off-Flavor Intensity,[10]; 0.01 ppt added,3.5 points
same,Off-Flavor Intensity,[10]; 0.1 ppt added,3.4 points
same,Off-Flavor Intensity,[10]; 1 ppb added,2.1 points
same,Off-Flavor Intensity,[10]; 1 ppt added,3.0 points
same,Off-Flavor Intensity,[10]; 10 ppb added,1.6 points
same,Off-Flavor Intensity,[10]; 10 ppt added,2.9 points
same,Off-Flavor Intensity,[10]; 100 ppb added,1.0 points
same,Off-Flavor Intensity,[10]; 100 ppt added,2.8 points
